Data reported in US20240217988A1, “ESTROGEN RECEPTOR ANTAGONIST” (Shenzhen Forward Pharmaceuticals Co., Limited, priority 2021, published 2024).
pIC50: −log10 of the molar value.

Columns and labels:
[1] = system: Human breast cancer cells MCF-7; experiment: MCF-7 cell proliferation experiment; assay type: cell-based; details: MCF-7 cells, 72 hours, Cell Titer-Glo
Method: Test Example 2: MCF-7 Cell Proliferation Experiment
Human breast cancer cells MCF-7 (HTB-22, purchased from ATCC) were inoculated into a 96-well plate. The culture medium was an MEM (Hyclone, SH30024.01B) culture medium containing 10% of FBS (Gibco, 10099-141), 1% of pyruvic acid (Sigma, S8636), and 1% of nonessential amino acid (Sigma, M7145), and the inoculation density was 4,000 cells/well. The cells were cultured at 37° C., 5% CO2. The compound was prepared into a 20 mM stock solution, which was subjected to gradient dilution to a final concentration of […] with 100% DMSO (Sigma, D2650) and then diluted 20 folds with a culture medium containing 2% of FBS. After 24 hours of culture, the culture medium was removed, 90 μL of a culture medium containing 2% of FBS and 10 μL of drug were added to each well, while 10 μL of DMSO was added to the control group, and they were gently shaken and mixed. The blank group only contained 100 μL of 2% FBS culture medium. They were placed in an incubator and cultured at 37° C., 5% CO2. After 72 hours, 50 μL of mixed Cell Titer-Glo (Promega, G7571) was added. They were shaken and mixed uniformly, and placed at room temperature for 10 min. The chemiluminescence signal value was determined. The negative control was 0.5% DMSO well.

[2] = biological target: ERα (Homo sapiens (Human), UniProt P03372); experiment: Degradation effect of compound on ERα (ERα DuoSet IC ELISA in MCF-7 cells); assay type: cell-based; details: 24 h with compound; for DC50: read-out: IC50 value of ERα degradation by compound
Sequence of ERα (P03372 whole entry): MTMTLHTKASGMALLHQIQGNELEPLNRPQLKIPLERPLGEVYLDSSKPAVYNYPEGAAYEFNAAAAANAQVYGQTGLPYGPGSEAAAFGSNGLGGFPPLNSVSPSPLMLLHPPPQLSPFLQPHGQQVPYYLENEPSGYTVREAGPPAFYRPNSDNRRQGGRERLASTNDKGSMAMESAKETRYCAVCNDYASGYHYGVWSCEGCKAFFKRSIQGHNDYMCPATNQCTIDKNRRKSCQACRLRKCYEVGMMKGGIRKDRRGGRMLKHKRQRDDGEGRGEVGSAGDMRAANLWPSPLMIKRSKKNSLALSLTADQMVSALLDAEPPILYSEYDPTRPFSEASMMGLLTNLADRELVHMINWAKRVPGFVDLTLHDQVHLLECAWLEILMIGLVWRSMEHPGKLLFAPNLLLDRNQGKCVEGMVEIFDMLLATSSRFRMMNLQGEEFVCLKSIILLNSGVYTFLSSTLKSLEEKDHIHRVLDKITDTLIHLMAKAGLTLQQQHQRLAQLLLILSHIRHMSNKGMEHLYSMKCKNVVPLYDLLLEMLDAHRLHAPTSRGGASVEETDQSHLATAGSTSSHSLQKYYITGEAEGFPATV
Method: In this test example, ERα DuoSet IC ELISA Kit (R&D, DYC5715) was used to detect the degradation effect of the compound on ERα. On the first day of the experiment, human breast cancer cells MCF-7 (the source was as above) were inoculated into a 24-well plate. The culture medium was an MEM culture medium containing 10% of activated-carbon-treated FBS (Tocyto, UT61204), 1% of pyruvic acid and 1% of nonessential amino acid. The inoculation density was 150,000 cells/well. The cells were cultured at 37° C., 5% CO2 for 24 h.
On the second day of the experiment, the compound to be tested was diluted in gradient and added to a 24-well plate containing cells. The cells were cultured for 24 h at 37° C., 5% CO2. ERα capture antibody was diluted to 1 μg/ml with PBS (Corning, 21-040-CVR) and added to a 96-well plate at 100 μL/well, and the plate was […] coated overnight at room temperature.
On the third day of the experiment, the coated 96-well plate was washed three times with PBS, 300 μL of a blocking solution (R&D, DY995) was added to each well, and the plate was blocked at room temperature for 1 h. The 24-well plate was washed once with PBS, and the residual liquid was sucked off. […] The diluted cell lysate was taken and added to the blocked 96-well plate, with 100 μL per well, and incubated at room temperature for 2 h. The plate was washed three times with a washing solution (R&D, WA126), and a primary antibody was then added. After incubation for 1 h, the 96-well plate was washed four times, a secondary antibody was added, and incubation was carried out at room temperature in the dark for 30 min. The plate was washed four times with the washing solution, and TMB (R&D, DY999) was added. After 15 minutes of development, the reaction was terminated with a stop solution (R&D, DY994), and the light absorption at 450 nm was read.

[3] = Stability in human liver microsomes in vitro; assay type: in vitro ADME; details: for microsomal CLint: read-out: CLint(mic)
Method: Test Example 4: Test for Stability in Human Liver Microsomes In Vitro Eight 96-well incubation plates were prepared and named [NT], Blank60 and NCF60, respectively. […] No test compound or control compound was added to Blank60 plate, and samples were taken after incubation for 60 min. NCF60 plate was incubated with a potassium phosphate buffer instead of an NADPH regeneration system solution (Sigma, N0505) for 60 min. […] Only the microsome working solution was added to Blank60 plate, and the incubation plates Blank60, T5, T15, T30, T45 and T60 except T0 and NCF60 were then placed in a water bath at 37° C. and pre-incubated for about 10 min. To the samples of T0 plate, 600 μL of a stop solution (acetonitrile:methanol (95:5, v/v) solution containing 100 ng/mL of tolbutamide (Sigma, T0891)) was added first, and the NADPH regeneration system working solution was then added. 98 μL of a potassium phosphate buffer was added to each well of NCF60 plate and incubated for 60 min. After the pre-incubation in the incubation plates Blank60, T5, T15, T30, T45 and T60 was completed, 98 μL of the NADPH regeneration system working solution was added to each sample well to initiate the reaction. After an appropriate incubation time (such as 5, 15, 30, 45 and 60 min), 600 μL of a stop solution was added to each sample well and the control sample well in Blank60, […] the reaction. All the sample plates were shaken uniformly and centrifuged at 3220×g for 20 min. 200 μL of test sample supernatant was separately taken and diluted in 200 μL of an aqueous solution containing 0.3% formic acid for LC-MS/MS analysis, and 100 μL of control sample supernatant was taken and diluted in 300 μL of pure water for LC-MS/MS analysis. Calculation was performed according to the following formula: [formula] [formula] [formula] [formula] [formula] [formula]

[4] = human liver microsomes, microsome protein 1 mg/mL working solution, NADPH
[5] = human liver microsomes, scaled to liver

## (E)-4-((S)-3-((3,5-difluoro4-((6S,8R)-8-methyl-2-oxo-7-(2,2,2-trifluoroethyl)-2,3,6,7, 8,9-hexahydrooxazolo[5,4-f]isoquinolin-6-yl)phenoxy)pyrrolidin-1-yl)-N,N-dimethylbut-2-enamide [Example 39]
[1]
  pIC50: 9.31

## C[C@@H]1Cc2c(ccc3[nH]c(=O)oc23)[C@@H](c2ccc(OCCCN3CCN(CCNc4cccc5c4CN(C4CCC(=O)NC4=O)C5=O)CC3)cn2)N1CC(F)(F)F (stereo partly drawn) [Example 43, 3-(4-((2-(4-(3-((6-((6S,8R)-8-methyl-2-oxo-7-(2,2,2-trifluoroethyl)-2,3,6,7,8,9-hexahydrooxazolo[5,4-f]isoquinolin-6-yl)pyridin-3-yl)oxy)propyl)piperazin-1-yl)ethyl)amino)-1-oxoisoindolin-2-yl)piperidine-2,6-dione]
[1]; Homo sapiens, MCF7
  pIC50: 9.16
[2]
  DC50: 0.63 nM

## C[C@@H]1Cc2c(ccc3[nH]c(=O)oc23)[C@@H](c2c(F)cc(O[C@@H]3CCN(C/C=C/C(=O)N(C)C)C3)cc2F)N1CC(F)(F)F [Example 37]
[1]; Homo sapiens, MCF7
  pIC50: 9.21

## COc1cc(NC2CN(CCCF)C2)cnc1[C@@H]1c2ccc3[nH]c(=O)oc3c2C[C@@H](C)N1CC(F)(F)F [Example 28, (6S,8R)-6-(5-((1-(3-fluoropropyl)azetidin-3-yl)amino)-3-methoxypyridin-2-yl)-8-methyl-7-(2,2,2-trifluoroethyl)-6,7,8,9-tetrahydroxazolo[5,4-f]isoquinolin-2(3H)-one]
[1]; Homo sapiens, MCF7
  pIC50: 9.40

## C[C@@H]1Cc2c(ccc3[nH]ncc23)[C@@H](c2ccc(NC3CN(CCCF)C3)cn2)N1CC(F)(F)F [AZD9833, reference compound]
[1]; Homo sapiens, MCF7
  pIC50: 8.61
[3]; [4]
  half-life: 1.33 h
[3]; [5]
  CLint scaled: 0.936 L/h/kg
[3]; human liver microsomes
  microsomal CLint: 17.3 µL/min/mg

## C[C@@H]1Cc2c(ccc3[nH]c(=O)oc23)[C@@H](c2c(F)cc(OCCNC/C=C/C(=O)N(C)C)cc2F)N1CC(F)(F)F [Example 16, (E)-4-((2-(3,5-difluoro-4-((6S,8R)-8-methyl-2-oxy-7-(2,2,2-trifluoroethyl)-2,3,6,7,8,9-hexahydrooxazolo[5,4-f]isoquinolin-6-yl)phenoxy)ethyl)amino)-N,N-dimethylbut-2-enamide]
[1]; Homo sapiens, MCF7
  pIC50: 9.10

## C[C@@H]1Cc2c(ccc3[nH]c(=O)oc23)[C@@H](c2ccc(O[C@H]3CCN(CCCF)C3)cn2)N1CC(F)(F)F [Example 29, (6S,8R)-6-(5-(((S)-1-(3-fluoropropane)pyrrolidin-3-yl)oxy)pyridin-2-yl)-8-methyl-7-(2,2,2-trifluoroethyl)-6,7,8,9-tetrahydrooxazolo[5,4-f]isoquinolin-2(3H)-one]
[1]; Homo sapiens, MCF7
  pIC50: 9.15

## C[C@@H]1Cc2c([nH]c3ccccc23)[C@@H](c2c(F)cc(/C=C/C(=O)O)cc2F)N1CC(C)(C)F [AZD9496, reference compound]
[1]; Homo sapiens, MCF7
  pIC50: 8.42

## C[C@@H]1Cc2c(ccc3[nH]c(=O)oc23)[C@@H](c2c(F)cc(NC3CN(C/C=C/C(=O)N(C)C)C3)cc2F)N1CC(F)(F)F [Example 35, (E)-4-(3-((3,5-difluoro-4-((6S,8R)-8-methyl-2-oxo-7-(2,2,2-trifluoroethyl)-2,3,6,7,8,9-hexahydrooxazolo[5,4-f]isoquinolin-6-yl)phenyl)amino)azetidin-1-yl)-N,N-dimethylbut-2-enamide]
[1]; Homo sapiens, MCF7
  pIC50: 9.09

## C[C@@H]1Cc2c(ccc3[nH]c(=O)oc23)[C@@H](c2ccc(NC3CN(CCCF)C3)cn2)N1CC(F)(F)F [Example 5, (6S,8R)-6-(5-((1-(3-fluoropropane)azetidin-3-yl)amino)pyridin-2-yl)-8-methyl-7-(2,2,2-trifluoroethyl)-6,7,8,9-tetrahydrooxazolo[5,4-f]isoquinolin-2(3H)-one]
[3]; [4]
  half-life: 1.26 h
[3]; [5]
  CLint scaled: 0.99 L/h/kg
[3]; human liver microsomes
  microsomal CLint: 18.4 µL/min/mg

## C[C@@H]1Cc2c(ccc3[nH]c(=O)oc23)[C@@H](c2c(F)cc(O[C@H]3CCN(CCCF)C3)cc2F)N1CC(F)(F)CO [Example 13, (6S,8R)-7-(2,2-difluoro-3-hydroxypropyl)-6-(2,6-difluoro-4-(((S)-1-(3-fluoropropane)pyrrolidin-3-yl)oxy)phenyl)-8-methyl-6,7,8,9-tetrahydrooxazolo[5,4-f]isoquinolin-2(3H)-one]
[1]; Homo sapiens, MCF7
  pIC50: 9.52
[2]
  DC50: 0.23 nM

## C[C@@H]1Cc2c(ccc3[nH]ncc23)[C@@H](c2c(F)cc(OCCN3CC(CF)C3)cc2F)N1CC(C)(C)F [Comparative Compound 1, (6S,8R)-6-(2,6-difluoro-4-(2-(3-(fluoromethyl)azetidin-1-yl)ethoxy)phenyl)-7-(2-fluoro-2-methylpropyl)-8-methyl-6,7,8,9-tetrahydro-3H-benzopyrazolo[4,3-f]isoquinoline, reference compound]
[1]
  pIC50: 8.57
[2]
  pIC50: 8.72
[3]; [4]
  T1/2: 0.703 h
[3]; [5]
  CLint(liver): 1.78 L/h/kg
[3]; human, microsomes
  CLint(mic): 32.9 µL/min/mg

## C[C@@H]1Cc2c(ccc3[nH]c(=O)oc23)[C@@H](c2c(F)cc(O[C@H]3CCN(CCCF)C3)cc2F)N1CC(F)(F)F [Example 11]
[1]; Homo sapiens, MCF7
  pIC50: 9.42
[2]
  DC50: 0.62 nM

## C[C@@H]1Cc2c(ccc3[nH]c(=O)oc23)[C@@H](c2ncc(NC3CN(CCCF)C3)cc2F)N1CC(F)(F)F [Example 27, (6S,8R)-6-(3-fluoro-5-((1-(3-fluoropropyl)azetidin-3-yl)amino)pyridin-2-yl)-8-methyl-7-(2,2,2-trifluoromethyl)-6,7,8,9-tetrahydroxazolo[5,4-f]isoquinolin-2(3H)-one]
[1]; Homo sapiens, MCF7
  pIC50: 8.79

## C[C@@H]1Cc2c(ccc3[nH]c(=O)oc23)[C@@H](c2c(F)cc(N3CC4(CN(CCF)C4)C3)cc2F)N1CC(F)(F)F [Example 8, (6S,8R)-6-(2,6-difluoro-4-(6-(2-fluoroethyl)-2,6-diazspiro[3.3]hept-2-yl)phenyl)-8-methyl-7-(2,2,2-trifluoroethyl)-6,7,8,9-tetrahydrooxazolo[5,4-f]isoquinolin-2(3H)-one]
[3]; [4]
  half-life: 1.43 h
[3]; [5]
  CLint scaled: 0.87 L/h/kg
[3]; human liver microsomes
  microsomal CLint: 16.1 µL/min/mg
